Results from patent US20080188498A1, “Pyridopyrimidinone compounds with antimalarial activity” (Radix Pharmaceuticals, Inc., priority 2007, published 2008).

How the values were obtained:
[1] = test system: Plasmodium berghei KBG-173; test: Prophylactic test, oral, P. berghei in mice; assay type: in vivo, mouse
Source text: Drugs were mixed in 0.5% hydroxycellulose 0.1% Tween 80 and administered orally b.i.d. either on day 5, 4, 3, 2, or 1 prior to the infection or 1 or 2 days postinfection. CD-I male or female mice, 5 weeks of age, were infected with 5×10^4 parasitized erythrocytes of Plasmodium berghei KBG-173 mm strain. Blood films were taken on day +6 and weekly thereafter until day+30. […]

P. berghei = test: Suppressive blood schizontocidal test, single subcutaneous dose, P. berghei in mice; assay type: in vivo, mouse; conditions: 72 h after infection
Procedure: Mice were treated with a single dose of the compound administered subcutaneously 72 h. after infection. Number of cures is the number of mice surviving, out of five, 60 days postinfection.

[2] = test system: Plasmodium berghei KBG-173; test: Blood schizontocidal test, oral dosing, P. berghei in mice; assay type: in vivo, mouse; conditions: days 3-5 postinfection
Procedure: Drugs were mixed in 0.5% hydroxycellulose 0.1% Tween 80 and administered orally b.i.d. on days 3, 4 and 5 postinfection. CD-1 male or female mice, 5 weeks of age, were infected with 5×10^4 parasitized erythrocytes of Plasmodium berghei KBG-173 mm strain. Blood films were taken on day +6 and weekly thereafter until day +60. Parasitemias were calculated and SD90 value (dose suppressing 90% of the parasites in treated groups compared with the infected non-treated controls) on day +6 postinfection. Mortality data was tabulated for 60 days at which time all mice surviving that were blood film negative were considered cured. […]

mouse = conditions: strong liver toxicity; cited from earlier work
[3] = single dose of 0.5 mg/kg, day of treatment 1
[4] = single dose of 0.5 mg/kg, day of treatment 2
[5] = single dose of 0.5 mg/kg, day of treatment −1
[6] = single dose of 0.5 mg/kg, day of treatment −2
[7] = single subcutaneous dose 1 mg/kg
[8] = single subcutaneous dose 2 mg/kg
[9] = single subcutaneous dose 4 mg/kg
[10] = single subcutaneous dose 8 mg/kg
[11] = single subcutaneous dose 16 mg/kg
[12] = single subcutaneous dose 32 mg/kg
[13] = single subcutaneous dose 64 mg/kg
[14] = single subcutaneous dose 128 mg/kg
[15] = oral dose 0.25 mg/kg/day (total dose 0.75 mg/kg)
[16] = oral dose 1.0 mg/kg/day (total dose 3.0 mg/kg)
[17] = oral dose 4.0 mg/kg/day (total dose 12 mg/kg)
[18] = oral dose 16 mg/kg/day (total dose 48 mg/kg)
[19] = oral dose 64 mg/kg/day (total dose 192 mg/kg)

O=C(CC1NCCC1O)Cn1cnc2ccc(F)c(F)c2c1=O (centres unmarked) [Compound IV, 5,6-Difluoro-3-[3-(3-hydroxy-pyrrolidin-2-yl)-2-oxo-propyl]-3H-quinazolin-4-one]
Mice surviving day 60/Mice infected and treated [1, 3]: 5/5 | Mice surviving day 60/Mice infected and treated [1, 4]: 5/5 | Mice surviving day 60/Mice infected and treated [1, 5]: 5/5 | Mice surviving day 60/Mice infected and treated [1, 6]: 5/5 | Mice surviving 60 days/Mice infected and treated (P. berghei; [7]): 4/5 | Mice surviving 60 days/Mice infected and treated (P. berghei; [8]): 5/5 | Mice surviving 60 days/Mice infected and treated (P. berghei; [9]): 5/5 | Mice surviving 60 days/Mice infected and treated (P. berghei; [10]): 5/5 | Mice surviving 60 days/Mice infected and treated (P. berghei; [11]): 5/5 | Mice surviving 60 days/Mice infected and treated (P. berghei; [12]): 5/5 | Mice surviving 60 days/Mice infected and treated (P. berghei; [13]): 5/5 | Mice surviving 60 days/Mice infected and treated (P. berghei; [14]): 5/5 | Mice surviving 60 days/Mice infected and treated [2, 15]: 6/7 | Mice surviving 60 days/Mice infected and treated [2, 16]: 7/7 | Mice surviving 60 days/Mice infected and treated [2, 17]: 7/7 | Mice surviving 60 days/Mice infected and treated [2, 18]: 7/7 | Mice surviving 60 days/Mice infected and treated [2, 19]: 7/7

O=C(C[C@H]1NCCC[C@@H]1O)Cn1cnc2ccccc2c1=O [Febrifugine, reference compound]
Dosage at which mouse toxic death occurred (mouse): 10 mg/kg/day | Mice surviving 60 days/Mice infected and treated [2, 15]: 1/7 | Mice surviving 60 days/Mice infected and treated [2, 16]: 2/7 | Mice surviving 60 days/Mice infected and treated [2, 17]: 5/7 | Mice surviving 60 days/Mice infected and treated [2, 18]: 0/7 | Mice surviving 60 days/Mice infected and treated [2, 19]: 0/7

O=C(CC1NCCC1O)Cn1cnc2cccc(F)c2c1=O (centres unmarked) [Compound III, 5-Fluoro-3-[3-(3-hydroxy-pyrrolidin-2-yl)-2-oxo-propyl]-3H-quinazolin-4-one]
Mice surviving day 60/Mice infected and treated [1, 3]: 5/5 | Mice surviving day 60/Mice infected and treated [1, 4]: 5/5 | Mice surviving day 60/Mice infected and treated [1, 5]: 5/5 | Mice surviving day 60/Mice infected and treated [1, 6]: 5/5 | Mice surviving 60 days/Mice infected and treated (P. berghei; [7]): 4/5 | Mice surviving 60 days/Mice infected and treated (P. berghei; [8]): 5/5 | Mice surviving 60 days/Mice infected and treated (P. berghei; [9]): 5/5 | Mice surviving 60 days/Mice infected and treated (P. berghei; [10]): 5/5 | Mice surviving 60 days/Mice infected and treated (P. berghei; [11]): 5/5 | Mice surviving 60 days/Mice infected and treated (P. berghei; [12]): 5/5 | Mice surviving 60 days/Mice infected and treated (P. berghei; [13]): 5/5 | Mice surviving 60 days/Mice infected and treated (P. berghei; [14]): 5/5 | Mice surviving 60 days/Mice infected and treated [2, 15]: 5/7 | Mice surviving 60 days/Mice infected and treated [2, 16]: 6/7 | Mice surviving 60 days/Mice infected and treated [2, 17]: 7/7 | Mice surviving 60 days/Mice infected and treated [2, 18]: 7/7 | Mice surviving 60 days/Mice infected and treated [2, 19]: 7/7

CCN(CC)CCCC(C)Nc1ccnc2cc(Cl)ccc12 (centres unmarked) [Chloroquine, reference compound]
Mice surviving 60 days/Mice infected and treated [2, 15]: 0/7 | Mice surviving 60 days/Mice infected and treated [2, 16]: 0/7 | Mice surviving 60 days/Mice infected and treated [2, 17]: 2/7 | Mice surviving 60 days/Mice infected and treated [2, 18]: 4/7 | Mice surviving 60 days/Mice infected and treated [2, 19]: 0/7

O=C(CC1NCCC1O)Cn1cnc2ccncc2c1=O (centres unmarked) [Compound II, 3-[3-(3-Hydroxy-pyrrolidin-2-yl)-2-oxo-propyl]-3H-pyrido[4,3-d]pyrimidin-4-one]
Mice surviving day 60/Mice infected and treated [1, 3]: 5/5 | Mice surviving day 60/Mice infected and treated [1, 4]: 5/5 | Mice surviving day 60/Mice infected and treated [1, 5]: 5/5 | Mice surviving day 60/Mice infected and treated [1, 6]: 5/5 | Mice surviving 60 days/Mice infected and treated (P. berghei; [7]): 4/5 | Mice surviving 60 days/Mice infected and treated (P. berghei; [8]): 5/5 | Mice surviving 60 days/Mice infected and treated (P. berghei; [9]): 5/5 | Mice surviving 60 days/Mice infected and treated (P. berghei; [10]): 5/5 | Mice surviving 60 days/Mice infected and treated (P. berghei; [11]): 5/5 | Mice surviving 60 days/Mice infected and treated (P. berghei; [12]): 5/5 | Mice surviving 60 days/Mice infected and treated (P. berghei; [13]): 5/5 | Mice surviving 60 days/Mice infected and treated (P. berghei; [14]): 5/5 | Mice surviving 60 days/Mice infected and treated [2, 15]: 7/7 | Mice surviving 60 days/Mice infected and treated [2, 16]: 7/7 | Mice surviving 60 days/Mice infected and treated [2, 17]: 7/7 | Mice surviving 60 days/Mice infected and treated [2, 18]: 7/7 | Mice surviving 60 days/Mice infected and treated [2, 19]: 7/7

O=C(CC1NCCC1O)Cn1cnc2cccc(C(F)(F)F)c2c1=O (centres unmarked) [Compound V, 3-[3-(3-Hydroxy-pyrrolidin-2-yl)-2-oxo-propyl]-5-trifluoromethyl-3H-quinazolin-4-one]
Mice surviving day 60/Mice infected and treated [1, 3]: 5/5 | Mice surviving day 60/Mice infected and treated [1, 4]: 5/5 | Mice surviving day 60/Mice infected and treated [1, 5]: 5/5 | Mice surviving day 60/Mice infected and treated [1, 6]: 5/5 | Mice surviving 60 days/Mice infected and treated (P. berghei; [7]): 4/5 | Mice surviving 60 days/Mice infected and treated (P. berghei; [8]): 5/5 | Mice surviving 60 days/Mice infected and treated (P. berghei; [9]): 5/5 | Mice surviving 60 days/Mice infected and treated (P. berghei; [10]): 5/5 | Mice surviving 60 days/Mice infected and treated (P. berghei; [11]): 5/5 | Mice surviving 60 days/Mice infected and treated (P. berghei; [12]): 5/5 | Mice surviving 60 days/Mice infected and treated (P. berghei; [13]): 5/5 | Mice surviving 60 days/Mice infected and treated (P. berghei; [14]): 5/5 | Mice surviving 60 days/Mice infected and treated [2, 15]: 7/7 | Mice surviving 60 days/Mice infected and treated [2, 16]: 7/7 | Mice surviving 60 days/Mice infected and treated [2, 17]: 7/7 | Mice surviving 60 days/Mice infected and treated [2, 18]: 7/7 | Mice surviving 60 days/Mice infected and treated [2, 19]: 7/7

O=C(CC1NCCC1O)Cn1cnc2cccnc2c1=O (centres unmarked) [Compound I, 3-[3-(3-Hydroxy-pyrrolidin-2-yl)-2-oxo-propyl]-3H-pyrido[3,2-d]pyrimidin-4-one]
Mice surviving day 60/Mice infected and treated ([1]; oral, day of treatment 1, dose 0.5 mg/kg): 5/5 | Mice surviving day 60/Mice infected and treated ([1]; oral, day of treatment 1, dose 2 mg/kg): 5/5 | Mice surviving day 60/Mice infected and treated ([1]; oral, day of treatment 1, dose 8 mg/kg): 5/5 | Mice surviving day 60/Mice infected and treated ([1]; oral, day of treatment 1, dose 32 mg/kg): 5/5 | Mice surviving day 60/Mice infected and treated ([1]; oral, day of treatment 2, dose 0.5 mg/kg): 5/5 | Mice surviving day 60/Mice infected and treated ([1]; oral, day of treatment 2, dose 2 mg/kg): 5/5 | Mice surviving day 60/Mice infected and treated ([1]; oral, day of treatment 2, dose 8 mg/kg): 5/5 | Mice surviving day 60/Mice infected and treated ([1]; oral, day of treatment 2, dose 32 mg/kg): 5/5 | Mice surviving day 60/Mice infected and treated ([1]; oral, day of treatment −1, dose 0.5 mg/kg): 5/5 | Mice surviving day 60/Mice infected and treated ([1]; oral, day of treatment −1, dose 2 mg/kg): 5/5 | Mice surviving day 60/Mice infected and treated ([1]; oral, day of treatment −1, dose 8 mg/kg): 5/5 | Mice surviving day 60/Mice infected and treated ([1]; oral, day of treatment −1, dose 32 mg/kg): 5/5 | Mice surviving day 60/Mice infected and treated ([1]; oral, day of treatment −2, dose 0.5 mg/kg): 5/5 | Mice surviving day 60/Mice infected and treated ([1]; oral, day of treatment −2, dose 2 mg/kg): 5/5 | Mice surviving day 60/Mice infected and treated ([1]; oral, day of treatment −2, dose 8 mg/kg): 5/5 | Mice surviving day 60/Mice infected and treated ([1]; oral, day of treatment −2, dose 32 mg/kg): 5/5 | Mice surviving day 60/Mice infected and treated ([1]; oral, day of treatment −3, dose 0.5 mg/kg): 0/5 | Mice surviving day 60/Mice infected and treated ([1]; oral, day of treatment −3, dose 2 mg/kg): 5/5 | Mice surviving day 60/Mice infected and treated ([1]; oral, day of treatment −3, dose 8 mg/kg): 5/5 | Mice surviving day 60/Mice infected and treated ([1]; oral, day of treatment −3, dose 32 mg/kg): 5/5 | Protection from malaria (oral prophylactic activity) ([1]; single dose of 0.5 mg/kg within 2 days preinfection through 2 days post infection): completely protected from malaria | Mice surviving 60 days/Mice infected and treated (P. berghei; [7]): 4/5 | Mice surviving 60 days/Mice infected and treated (P. berghei; [8]): 5/5 | Mice surviving 60 days/Mice infected and treated (P. berghei; [9]): 5/5 | Mice surviving 60 days/Mice infected and treated (P. berghei; [10]): 5/5 | Mice surviving 60 days/Mice infected and treated (P. berghei; [11]): 5/5 | Mice surviving 60 days/Mice infected and treated (P. berghei; [12]): 5/5 | Mice surviving 60 days/Mice infected and treated (P. berghei; [13]): 5/5 | Mice surviving 60 days/Mice infected and treated (P. berghei; [14]): 5/5 | Mice surviving 60 days/Mice infected and treated [2, 15]: 7/7 | Mice surviving 60 days/Mice infected and treated [2, 16]: 7/7 | Mice surviving 60 days/Mice infected and treated [2, 17]: 7/7 | Mice surviving 60 days/Mice infected and treated [2, 18]: 7/7 | Mice surviving 60 days/Mice infected and treated [2, 19]: 7/7
